Data as given in the supplement of paper PMC10307832.

Assays:
Experiment in all cases: relative viability (nuclei count vs DMSO), 5 days (fraction); higher = more cells survive
Afatinib + Pemetrexed = compound: CN(C)C/C=C/C(=O)Nc1cc2c(Nc3ccc(F)c(Cl)c3)ncnc2cc1O[C@H]1CCOC1 [Afatinib] + Nc1nc2[nH]cc(CCc3ccc(C(=O)N[C@@H](CCC(=O)O)C(=O)O)cc3)c2c(=O)[nH]1 [Pemetrexed] (partner 0.2 µM)
How it was run: (§1)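 One day after seeding in 1536-well plates, lung cancer cell lines were dosed by pin tool. Dosing was either single-drug or a fixed anchor-drug dose plus five library-drug doses (not always all listed) in √10 steps. After 5 days, nuclei were stained in one fix-and-stain step and counted on 4× images, and relative viability is the nuclei count of treated wells over that of vehicle wells, given as the median of duplicate plates.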

Afatinib + Crizotinib = compound: CN(C)C/C=C/C(=O)Nc1cc2c(Nc3ccc(F)c(Cl)c3)ncnc2cc1O[C@H]1CCOC1 [Afatinib] + C[C@@H](Oc1cc(-c2cnn(C3CCNCC3)c2)cnc1N)c1c(Cl)ccc(F)c1Cl [Crizotinib] (partner 1 µM)
How it was run: as §1

Afatinib + Dasatinib = compound: CN(C)C/C=C/C(=O)Nc1cc2c(Nc3ccc(F)c(Cl)c3)ncnc2cc1O[C@H]1CCOC1 [Afatinib] + Cc1nc(Nc2ncc(C(=O)Nc3c(C)cccc3Cl)s2)cc(N2CCN(CCO)CC2)n1 [Dasatinib] (partner 0.075 µM)
How it was run: as §1

Afatinib + Lapatinib = compound: CN(C)C/C=C/C(=O)Nc1cc2c(Nc3ccc(F)c(Cl)c3)ncnc2cc1O[C@H]1CCOC1 [Afatinib] + CS(=O)(=O)CCNCc1ccc(-c2ccc3ncnc(Nc4ccc(OCc5cccc(F)c5)c(Cl)c4)c3c2)o1 [Lapatinib] (partner 2 µM)
How it was run: as §1

Cell Line | relative viability (Afatinib + Pemetrexed; first compound 0.005 µM) | relative viability (Afatinib + Pemetrexed; first compound 0.01581 µM) | relative viability (Afatinib + Pemetrexed; first compound 0.05 µM) | relative viability (Afatinib + Pemetrexed; first compound 0.1581 µM) | relative viability (Afatinib + Pemetrexed; first compound 0.5 µM) | relative viability (Afatinib + Crizotinib; first compound 0.005 µM) | relative viability (Afatinib + Crizotinib; first compound 0.01581 µM) | relative viability (Afatinib + Crizotinib; first compound 0.05 µM) | relative viability (Afatinib + Crizotinib; first compound 0.1581 µM) | relative viability (Afatinib + Crizotinib; first compound 0.5 µM) | relative viability (Afatinib + Dasatinib; first compound 0.005 µM) | relative viability (Afatinib + Dasatinib; first compound 0.01581 µM) | relative viability (Afatinib + Dasatinib; first compound 0.05 µM) | relative viability (Afatinib + Dasatinib; first compound 0.1581 µM) | relative viability (Afatinib + Dasatinib; first compound 0.5 µM) | relative viability (Afatinib + Lapatinib; first compound 0.005 µM) | relative viability (Afatinib + Lapatinib; first compound 0.01581 µM) | relative viability (Afatinib + Lapatinib; first compound 0.05 µM) | relative viability (Afatinib + Lapatinib; first compound 0.1581 µM) | relative viability (Afatinib + Lapatinib; first compound 0.5 µM)
NCI-H647 | 0.174 | 0.169 | 0.179 | 0.188 | 0.107 | 1.26 | 1.13 | 1.01 | 1.04 | 1.19 | 0.24 | 0.141 | 0.201 | 0.192 | 0.172 | 1.09 | 0.948 | 1.16 | 1.24 | 1.2
A-427 | 1.05 | 1.03 | 1.05 | 0.969 | 0.983 | 0.999 | 0.963 | 1.04 | 0.845 | 0.855 | 0.661 | 0.741 | 0.631 | 0.669 | 0.72 | 1.09 | 1.09 | 1.01 | 1.03 | 1.04
COR-L 105 | 0.837 | 0.503 | 0.542 | 0.353 | 0.377 | 0.618 | 0.285 | 0.304 | 0.221 | 0.216 | 0.206 | 0.119 | 0.142 | 0.137 | 0.148 | 0.311 | 0.385 | 0.344 | 0.31 | 0.343
NCI-H2126 | 0.715 | 0.66 | 0.623 | 0.469 | 0.45 | 1.09 | 0.989 | 1.02 | 0.884 | 0.79 | 0.573 | 0.532 | 0.439 | 0.394 | 0.401 | 0.779 | 0.688 | 0.686 | 0.761 | 0.799
NCI-H460 | 0.0534 | 0.0601 | 0.0633 | 0.0503 | 0.0638 | 0.878 | 0.748 | 0.885 | 0.809 | 0.875 | 0.531 | 0.527 | 0.469 | 0.467 | 0.535 | 0.973 | 0.932 | 1.04 | 1.02 | 0.842
SK-LU-1 | 0.967 | 0.816 | 1.03 | 0.948 | 0.969 | 1.07 | 0.731 | 0.879 | 1.12 | 0.842 | 0.179 | 0.203 | 0.211 | 0.175 | 0.222 | 1.33 | 0.89 | 0.803 | 0.941 | 0.915
NCI-H322M | 0.563 | 0.534 | 0.523 | 0.531 | 0.509 | 0.775 | 0.676 | 0.544 | 0.359 | 0.293 | 0.246 | 0.229 | 0.231 | 0.233 | 0.248 | 0.554 | 0.547 | 0.499 | 0.57 | 0.465
EKVX | 0.318 | 0.271 | 0.254 | 0.187 | 0.185 | 0.892 | 0.708 | 0.551 | 0.268 | 0.159 | 0.334 | 0.429 | 0.339 | 0.319 | 0.231 | 0.191 | 0.18 | 0.188 | 0.208 | 0.198
NCI-H1734 | 0.411 | 0.374 | 0.406 | 0.375 | 0.453 | 0.82 | 0.687 | 0.652 | 0.568 | 0.642 | 0.482 | 0.386 | 0.497 | 0.491 | 0.444 | 1.06 | 1.01 | 1.06 | 1.01 | 1.09
NCI-H520 | 0.771 | 0.717 | 0.749 | 0.725 | 0.668 | 1.33 | 0.851 | 0.832 | 0.749 | 0.737 | 0.199 | 0.178 | 0.19 | 0.225 | 0.14 | 0.857 | 0.78 | 0.918 | 0.903 | 0.687
EPLC-272H | 0.349 | 0.381 | 0.301 | 0.285 | 0.318 | 0.698 | 0.72 | 0.842 | 0.739 | 0.575 | 0.326 | 0.341 | 0.262 | 0.253 | 0.244 | 0.941 | 0.826 | 0.941 | 0.863 | 0.924
UMC-11 | 0.892 | 0.814 | 0.846 | 0.738 | 0.722 | 0.679 | 0.558 | 0.557 | 0.629 | 0.71 | 0.657 | 0.439 | 0.436 | 0.419 | 0.419 | 1.07 | 0.919 | 0.846 | 0.802 | 1
NCI-H1792 | 0.781 | 0.647 | 0.751 | 0.824 | 0.522 | 1.04 | 1.01 | 0.977 | 0.907 | 0.856 | 0.657 | 0.84 | 0.748 | 0.657 | 0.911 | 0.999 | 0.783 | 0.825 | 0.972 | 0.971
